Columns and labels:
hPSC cell line = assay: Chromatin immunoprecipitation for VDR and SMAD3; format: cell-based, human; settings: 100 nM Cal 16 h pretreatment, 1 ng/ml TGFβ 4 h
Procedure: The hPSC cell line was utilized for chromatin immunoprecipitation, which was described previously (Barish et al., 2010). Briefly, cells were fixed in 1% formaldehyde, and nuclei were isolated and lysed in buffer containing 1% SDS, 10 mM EDTA, 50 mM Tris-HCl pH 8.0, and protease inhibitors, and sheared with a Diagenode Bioruptor to chromatin fragment sizes of 200-1000 base pairs. Chromatin was immunoprecipitated with antibodies to VDR (C-20, Santa Cruz Biotechnology), SMAD3 (Abcam), or rabbit IgG (Santa Cruz Biotechnology).

wild-type C57BL6/J mice = assay: Cerulein-induced chronic pancreatitis model; format: in vivo, mouse; settings: for inflammation and fibrosis: cerulein plus 40 μg/kg calcipotriol i.p. vs cerulein alone
Procedure: Tissues were embedded in O.C.T. and frozen sections were fixed in ice-cold methanol at −20° C. for 20 min. Sections were blocked in PBS+0.2% BSA+0.05% Triton X-100 (blocking solution) for 1 h at room temperature. Primary antibody dilutions in blocking solution were as follows: anti-phospho-STAT3(Tyr705), 1:100 (Cell Signaling Technology); anti-Collagen I, 1:500 (Abcam), anti-GFAP, 1:100 (Abcam); anti-CD45, 1:100 (BD Pharmingen). Primary antibody incubations were performed in a humidified chamber at 4° C. overnight. Sections were washed 3 times with PBS+0.05% Triton X-100, then incubated in secondary antibodies for 1 h at room temperature, protected from light. Secondary antibodies used included Alexa Fluor 594 goat anti-rabbit IgG, Alexa Fluor 488 goat anti-rabbit IgG, Alexa Fluor 594 goat anti-rat IgG, and Alexa Fluor 488 goat anti-mouse IgG (Molecular Probes) and were used at 1:250 in blocking solution. Sections were washed 3 times with PBS and mounted using Vectastain mounting medium with or without DAPI. Fluorescence was visualized on a Leica DM5000B fluorescent microscope and quantified using ImageJ. Chronic pancreatitis was induced in wild-type C57BL6/J mice beginning at 8 weeks of age. Ten animals per cohort received intraperitoneal injections of saline, 50 μg/kg cerulein, or cerulein plus 40 μg/kg calcipotriol. Cerulein injections were administered as 6 hourly injections 2 times per week for 12 weeks and analyzed 1 week after final cerulein injection, adapted from previous studies (Sah et al., 2013; Treiber et al., 2011; Yoo et al., 2005). Calcipotriol injections were administered 3 times per week for the duration of the chronic pancreatitis study. For acute pancreatitis studies, 8-week-old wild-type or Vdr−/− mice received 6 hourly intraperitoneal injections of 50 μg/kg cerulein on days 1, 3, and 5, with or without single daily injections of 40 μg/kg calcipotriol. Mice were sacrificed on day 6. At necropsy, pancreata were harvested and digested for PSC isolation as described above, or prepared for histological analysis as described herein. Histological sections were cut from formalin-fixed tissues at 7 μm thickness Sirius Red/Fast Green staining (Chondrex) was performed per manufacturer's instructions. Images were obtained and quantification of Sirius Red-positive area performed using Nuance 3.0.1.2 software. Six independent fields were captured per sample.

## C=C1/C(=C\C=C2/CCC[C@]3(C)[C@@H]([C@H](C)/C=C/[C@@H](O)C4CC4)CC[C@@H]23)C[C@@H](O)C[C@@H]1O [Cal, 1α,24-(OH)2-24-cyclopropyl-D3]
hPSC cell line
  SMAD3 binding in promoter regions of fibrogenic genes (HAS2, COL1A1): decreasing SMAD3 binding
  VDR binding in promoter regions of fibrogenic genes (HAS2, COL1A1): increased VDR binding
wild-type C57BL6/J mice
  inflammation and fibrosis: attenuated inflammation and fibrosis
wild-type C57BL6/J mice; listed as calcipotriol
  inflammation and fibrosis: markedly reduced inflammation and fibrosis
wild-type C57BL6/J mice; cerulein+Cal 12 weeks
  Acta2 expression in isolated PSCs: trended downwards
  phospho-Stat3 induction: reduced induction of phospho-Stat3
wild-type C57BL6/J mice; cerulein+Cal 12 weeks vs controls
  expression of activation and cancer signature genes in isolated PSCs: decreased

— patent publication US9895381B2, “Vitamin D receptor agonists to treat diseases involving CXCL12 activity” (Salk Institute for Biological Studies, priority 2013, dated 2018)
